Data: patent US12510537B2, “High throughput drug screening methods” (NERD BIO LLC, priority 2020, dated 2025)

Experiments:
[1] = molecular target: BCL6 (Homo sapiens, UniProt P41182); settings: well-characterized Boehringer Ingelheim inhibitor; read-out: in vitro IC50; cited from earlier work
[2] = molecular target: GSK3beta (Homo sapiens, UniProt P49841); experiment: UV-B induced denaturation of cell lysates, immunoblot of soluble fraction, GSK3beta; format: binding; settings: lysates exposed to UV-B for 4 min; FIG. 29B
Chain of GSK3beta (P49841 whole entry, species assumed): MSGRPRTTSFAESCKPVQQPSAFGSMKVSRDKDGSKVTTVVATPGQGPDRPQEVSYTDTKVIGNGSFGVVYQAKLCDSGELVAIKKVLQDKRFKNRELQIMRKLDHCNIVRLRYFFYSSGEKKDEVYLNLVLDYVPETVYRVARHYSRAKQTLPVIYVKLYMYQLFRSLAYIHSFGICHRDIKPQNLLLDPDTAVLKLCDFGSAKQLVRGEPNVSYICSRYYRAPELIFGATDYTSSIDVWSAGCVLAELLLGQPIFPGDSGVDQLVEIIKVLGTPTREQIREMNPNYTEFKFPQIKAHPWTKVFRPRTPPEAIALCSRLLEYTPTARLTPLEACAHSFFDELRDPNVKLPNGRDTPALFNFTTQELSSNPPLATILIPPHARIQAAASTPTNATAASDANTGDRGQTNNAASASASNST

Row | Compound | IC50 [1] | stabilization of GSK3beta protein from UV-B induced denaturation [2]
1 | CNC(=O)COc1cc2cc(Nc3nc(N4CCC(C(=O)N(C)C)CC4)ncc3Cl)cc(OC)c2n(C)c1=O [BI-3812] | ~3 nM | –
2 | Cc1c[nH]c(-c2cnc(NCCNc3ccc(C#N)cn3)nc2-c2ccc(Cl)cc2Cl)n1 [CHIR99021] | – | stabilization of the GSK3beta protein
